The target of one experiment is T1, BRM (Homo sapiens, UniProt P51531).
T1 construct: made in house; host or cells: High Five insect cells
Nature of the experiment: ATPase catalytic activity of BRM, ADP-Glo in vitro biochemical assay. The settings on record: ATPase catalytic activity, 30 nM BRM, 400 μM ATP.

In a further experiment the target is T2, BRG-1 (Homo sapiens, UniProt P51532).
T2 construct: made in house; host or cells: High Five insect cells
Kind of experiment: ATPase catalytic activity of BRG-1, ADP-Glo in vitro biochemical assay. Particulars: ATPase catalytic activity, 30 nM BRG-1, 400 μM ATP.

Read-outs that look alike come from different tables or passages of the source.

T1 sequence (P51531 whole entry): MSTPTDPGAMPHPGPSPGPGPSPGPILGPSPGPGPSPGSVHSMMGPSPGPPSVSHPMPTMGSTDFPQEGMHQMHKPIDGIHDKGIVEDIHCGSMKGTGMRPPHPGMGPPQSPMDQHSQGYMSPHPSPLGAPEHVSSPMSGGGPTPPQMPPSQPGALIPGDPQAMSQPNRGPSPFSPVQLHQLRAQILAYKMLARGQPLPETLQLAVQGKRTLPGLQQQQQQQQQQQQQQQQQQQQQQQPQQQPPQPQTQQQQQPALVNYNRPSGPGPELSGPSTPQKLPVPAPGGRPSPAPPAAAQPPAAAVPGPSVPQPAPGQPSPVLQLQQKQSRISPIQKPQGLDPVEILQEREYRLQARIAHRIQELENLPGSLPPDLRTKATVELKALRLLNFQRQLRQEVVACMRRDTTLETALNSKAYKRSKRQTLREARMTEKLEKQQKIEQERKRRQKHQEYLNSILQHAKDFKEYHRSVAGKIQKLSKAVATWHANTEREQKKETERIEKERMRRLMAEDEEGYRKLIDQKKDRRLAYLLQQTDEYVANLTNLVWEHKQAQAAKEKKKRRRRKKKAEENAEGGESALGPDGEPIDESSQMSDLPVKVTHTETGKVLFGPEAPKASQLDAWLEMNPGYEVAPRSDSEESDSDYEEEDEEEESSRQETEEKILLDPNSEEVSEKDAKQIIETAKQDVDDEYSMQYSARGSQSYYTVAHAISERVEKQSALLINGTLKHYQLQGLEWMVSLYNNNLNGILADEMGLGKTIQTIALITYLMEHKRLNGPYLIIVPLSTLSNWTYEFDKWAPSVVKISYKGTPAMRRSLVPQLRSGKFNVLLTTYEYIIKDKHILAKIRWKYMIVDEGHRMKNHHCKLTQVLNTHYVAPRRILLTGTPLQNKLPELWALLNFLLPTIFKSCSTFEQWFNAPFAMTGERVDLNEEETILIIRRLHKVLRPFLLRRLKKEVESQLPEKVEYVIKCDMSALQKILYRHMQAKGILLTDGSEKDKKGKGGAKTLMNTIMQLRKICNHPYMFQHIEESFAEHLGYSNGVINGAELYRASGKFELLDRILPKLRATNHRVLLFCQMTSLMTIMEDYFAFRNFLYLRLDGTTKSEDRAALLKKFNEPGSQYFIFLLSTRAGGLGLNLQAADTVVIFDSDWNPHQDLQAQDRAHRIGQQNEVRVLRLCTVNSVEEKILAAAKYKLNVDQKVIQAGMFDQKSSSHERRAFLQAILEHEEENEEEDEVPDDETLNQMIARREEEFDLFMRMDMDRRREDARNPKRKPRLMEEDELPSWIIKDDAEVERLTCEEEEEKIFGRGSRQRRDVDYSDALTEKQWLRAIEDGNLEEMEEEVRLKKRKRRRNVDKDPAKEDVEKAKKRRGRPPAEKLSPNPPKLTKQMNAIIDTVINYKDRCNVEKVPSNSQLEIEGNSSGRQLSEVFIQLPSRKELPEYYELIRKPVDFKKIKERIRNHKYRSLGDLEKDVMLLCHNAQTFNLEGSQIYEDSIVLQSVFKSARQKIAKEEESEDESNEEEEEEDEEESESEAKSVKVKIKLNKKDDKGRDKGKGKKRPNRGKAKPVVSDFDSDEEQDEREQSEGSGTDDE
T2 sequence (P51532 whole entry): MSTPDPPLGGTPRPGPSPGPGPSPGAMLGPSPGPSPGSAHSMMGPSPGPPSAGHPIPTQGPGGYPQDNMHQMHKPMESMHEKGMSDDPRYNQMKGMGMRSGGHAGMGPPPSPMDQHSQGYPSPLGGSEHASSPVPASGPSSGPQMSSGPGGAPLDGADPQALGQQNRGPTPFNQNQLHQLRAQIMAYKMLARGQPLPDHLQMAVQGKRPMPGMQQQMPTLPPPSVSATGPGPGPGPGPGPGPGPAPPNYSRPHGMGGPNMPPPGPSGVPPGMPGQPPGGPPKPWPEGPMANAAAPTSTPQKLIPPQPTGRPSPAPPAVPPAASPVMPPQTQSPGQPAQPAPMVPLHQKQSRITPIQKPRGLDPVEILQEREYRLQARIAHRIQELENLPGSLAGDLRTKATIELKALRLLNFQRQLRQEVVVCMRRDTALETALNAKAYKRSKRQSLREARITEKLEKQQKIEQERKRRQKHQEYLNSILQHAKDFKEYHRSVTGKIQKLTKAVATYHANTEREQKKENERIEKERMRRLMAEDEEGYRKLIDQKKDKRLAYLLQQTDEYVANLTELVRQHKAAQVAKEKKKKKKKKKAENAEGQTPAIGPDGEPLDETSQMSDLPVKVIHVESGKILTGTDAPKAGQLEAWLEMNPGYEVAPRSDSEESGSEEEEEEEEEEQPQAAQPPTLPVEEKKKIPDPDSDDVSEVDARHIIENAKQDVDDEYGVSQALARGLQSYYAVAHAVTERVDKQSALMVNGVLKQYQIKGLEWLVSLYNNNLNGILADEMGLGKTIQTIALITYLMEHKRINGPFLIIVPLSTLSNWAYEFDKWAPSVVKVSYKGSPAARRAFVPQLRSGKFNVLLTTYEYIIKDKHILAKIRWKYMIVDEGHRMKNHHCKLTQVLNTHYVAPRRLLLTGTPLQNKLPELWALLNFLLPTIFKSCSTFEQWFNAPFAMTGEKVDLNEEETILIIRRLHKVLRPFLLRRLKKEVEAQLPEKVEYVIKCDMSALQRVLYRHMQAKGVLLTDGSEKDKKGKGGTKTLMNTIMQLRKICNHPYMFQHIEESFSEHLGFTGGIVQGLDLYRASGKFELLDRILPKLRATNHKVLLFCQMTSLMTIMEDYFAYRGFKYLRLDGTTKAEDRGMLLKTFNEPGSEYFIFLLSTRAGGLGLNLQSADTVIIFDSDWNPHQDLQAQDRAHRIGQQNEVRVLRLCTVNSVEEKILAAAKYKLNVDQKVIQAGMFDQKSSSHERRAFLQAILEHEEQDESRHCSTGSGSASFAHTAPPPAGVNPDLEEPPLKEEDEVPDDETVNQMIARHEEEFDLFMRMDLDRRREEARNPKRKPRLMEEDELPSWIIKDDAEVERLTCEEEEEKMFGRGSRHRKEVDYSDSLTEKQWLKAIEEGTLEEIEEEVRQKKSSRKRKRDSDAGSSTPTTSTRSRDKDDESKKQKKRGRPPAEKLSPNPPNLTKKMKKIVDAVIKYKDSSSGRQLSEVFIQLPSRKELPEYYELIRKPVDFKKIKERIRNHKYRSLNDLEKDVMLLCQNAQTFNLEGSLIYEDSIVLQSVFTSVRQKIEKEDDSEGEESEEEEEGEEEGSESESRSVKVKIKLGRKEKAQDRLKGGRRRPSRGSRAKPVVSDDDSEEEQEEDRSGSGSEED

Take `C[C@@H]1CN(c2nc(-c3csc(NC(=O)CNC(=O)c4ccn(S(C)(=O)=O)c4)n3)ccc2F)C[C@H](C)O1` [Compound 379]: the IC50 on BRM (read-out: BRM IP50 (μM)*) and at BRG-1 (read-out: BRG1 IP50 (μM)*) was below 0.01 µM in each case.

For the compound `COC[C@H](NC(=O)c1ccn(S(C)(=O)=O)c1)C(=O)Nc1nc(-c2cc(F)c(F)c(N3C[C@@H](C)O[C@@H](C)C3)c2)cs1` [Compound 380], the IC50 at BRM (read-out: BRM IP50 (μM)*) and on BRG-1 (read-out: BRG1 IP50 (μM)*) was below 0.01 µM each time.

Regarding `COC[C@H](NC(=O)c1ccn(C(C)(C)C)c1)C(=O)Nc1nc(-c2ccnc(N3C[C@@H](C)O[C@@H](C)C3)n2)cs1` [Compound 381], the IC50 on BRM (read-out: BRM IP50 (μM)*) is below 0.01 µM; at BRG-1 (read-out: BRG1 IP50 (μM)*), above 0.01 µM.

On to `Cn1ncc(-c2cccc(-c3csc(NC(=O)CNC(=O)c4ccn(C(C)(C)C)c4)n3)n2)n1` [Compound 382, 1-tert-butyl-N-[2-[[4-[6-(2-methyltriazol-4-yl)-2-pyridyl]thiazol-2-yl]amino]-2-oxo-ethyl]pyrrole-3-carboxamide], for which the IC50 on BRM (read-out: BRM IP50 (μM)*) and on BRG-1 (read-out: BRG1 IP50 (μM)*) was above 0.01 µM in each case.

On to `CN1CCCc2ccc(-c3csc(NC(=O)CNC(=O)c4ccn(C(C)(C)C)c4)n3)nc21` [Compound 383], for which the results for the IC50 at BRM (read-out: BRM IP50 (μM)*) and at BRG-1 (read-out: BRG1 IP50 (μM)*) were above 0.01 µM and above 0.1 µM, respectively.

As for `C[C@@H]1CN(c2cc(-c3csc(NC(=O)CNC(=O)c4ccn(S(C)(=O)=O)c4)n3)cc(F)c2F)C[C@H](C)O1` [Compound 384], the IC50 on BRM (read-out: BRM IP50 (μM)*) and on BRG-1 (read-out: BRG1 IP50 (μM)*) was below 0.01 µM each time.

Take `CS(=O)(=O)n1ccc(C(=O)NCC(=O)Nc2nc(-c3cccc([C@H]4CC[C@H](O)CC4)c3)cs2)c1` [Compound 386, N-(2-((4-(3-((trans)-4-hydroxycyclohexyl)phenyl)thiazol-2-yl)amino)-2-oxoethyl)-1-(methylsulfonyl)-1H-pyrrole-3-carboxamide]: the IC50 at BRM (read-out: BRM IP50) and on BRG-1 (read-out: BRG1 IP50) was below 0.01 µM in each case.

In the case of `CS(=O)(=O)n1ccc(C(=O)NCC(=O)Nc2nc(-c3cccc([C@H]4CC[C@@H](O)CC4)c3)cs2)c1` [Compound 387, N-(2-((4-(3-((cis)-4-hydroxycyclohexyl)phenyl)thiazol-2-yl)amino)-2-oxoethyl)-1-(methylsulfonyl)-1H-pyrrole-3-carboxamide], the IC50 on BRM (read-out: BRM IP50) and at BRG-1 (read-out: BRG1 IP50) was above 0.01 µM throughout.

As to `CC1(C)CC(c2cccc(-c3csc(NC(=O)CNC(=O)c4ccn(S(C)(=O)=O)c4)n3)c2)CC(C)(C)O1` [Compound 388], the IC50 on BRM (read-out: BRM IP50) is above 0.01 µM; on BRG-1 (read-out: BRG1 IP50), above 0.1 µM.

Consider `CS(=O)(=O)n1ccc(C(=O)NCC(=O)Nc2nc(-c3cccc(C4=CCN(C5COC5)CC4)c3)cs2)c1` [Compound 389], for which the IC50 at BRM (read-out: BRM IP50) and at BRG-1 (read-out: BRG1 IP50) was above 0.01 µM throughout.

`CS(=O)(=O)n1ccc(C(=O)NCC(=O)Nc2nc(-c3cccc([C@H]4CCCCO4)c3)cs2)c1` [Compound 393]: the IC50 on BRM (read-out: BRM IP50) and on BRG-1 (read-out: BRG1 IP50) was above 0.01 µM throughout.

In the case of `CN1CCCc2ccc(-c3csc(NC(=O)CNC(=O)c4ccn(S(C)(=O)=O)c4)n3)nc21` [Compound 394], the IC50 at BRM (read-out: BRM IP50) and on BRG-1 (read-out: BRG1 IP50) was above 0.01 µM in each case.

Regarding `CC(C)(C)n1ccc(C(=O)NCC(=O)Nc2nc(-c3cccc(C4(O)CC4)n3)cs2)c1` [Compound 395], the IC50 on BRM (read-out: BRM IP50) and at BRG-1 (read-out: BRG1 IP50) was above 0.1 µM in each case.

Consider `CS(=O)(=O)n1ccc(C(=O)NCC(=O)Nc2nc(-c3cccc(C4=CCCOC4)c3)cs2)c1` [Compound 396, N-[2-[[4-[3-(3,6-dihydro-2H-pyran-5-yl)phenyl]thiazol-2-yl]amino]-2-oxo-ethyl]-1-methylsulfonyl-pyrrole-3-carboxamide], for which the IC50 at BRM (read-out: BRM IP50) is below 0.01 µM; on BRG-1 (read-out: BRG1 IP50) it was above 0.01 µM.

As to `CC(C)(C)n1ccc(C(=O)NCC(=O)Nc2nc(-c3cccc(N4CCC5(CC4)COC5)c3)cs2)c1` [Compound 397, N-(2-((4-(3-(2-oxa-7-azaspiro[3.5]nonan-7-yl)phenyl)thiazol-2-yl)amino)-2-oxoethyl)-1-(tert-butyl)-1H-pyrrole-3-carboxamide], the IC50 on BRM (read-out: BRM IP50) and at BRG-1 (read-out: BRG1 IP50) was above 0.1 µM throughout.

In the case of `CS(=O)(=O)n1ccc(C(=O)NCC(=O)Nc2nc(-c3cccc(C4CCOCC4)c3)cs2)c1` [Compound 399], the IC50 at BRM (read-out: BRM IP50) and on BRG-1 (read-out: BRG1 IP50) was above 0.01 µM throughout.

On to `CS(=O)(=O)n1ccc(C(=O)NCC(=O)Nc2nc(-c3cccc(C4=CCOCC4)c3)cs2)c1` [Compound 400], for which the IC50 at BRM (read-out: BRM IP50) and on BRG-1 (read-out: BRG1 IP50) was below 0.01 µM each time.

As for `Cc1ccc(Cl)c(-c2cc(-c3csc(NC(=O)CNC(=O)c4ccn(S(C)(=O)=O)c4)n3)ccc2C)n1` [Compound 401, N-(2-((4-(3-(3-chloro-6-methylpyridin-2-yl)-4-methylphenyl)thiazol-2-yl)amino)-2-oxoethyl)-1-(methylsulfonyl)-1H-pyrrole-3-carboxamide], the IC50 on BRM (read-out: BRM IP50) and at BRG-1 (read-out: BRG1 IP50) was above 0.1 µM throughout.

Take `Cc1cc(-c2cccc(-c3csc(NC(=O)CNC(=O)c4ccn(C(C)(C)C)c4)n3)c2)cnn1` [Compound 402]: the values for the IC50 at BRM (read-out: BRM IP50) and at BRG-1 (read-out: BRG1 IP50) were below 0.01 µM and above 0.01 µM, respectively.

Regarding `CCS(=O)(=O)n1ccc(C(=O)NCC(=O)Nc2nc(-c3cccc(-c4cnn(C)n4)c3)cs2)c1` [Compound 403], the IC50 at BRM (read-out: BRM IP50) and on BRG-1 (read-out: BRG1 IP50) was above 0.01 µM in each case.

Regarding `CS(=O)(=O)n1ccc(C(=O)NCC(=O)Nc2nc(-c3cccc(-c4cc5n(n4)CCOC5)c3)cs2)c1` [Compound 404], the IC50 on BRM (read-out: BRM IP50) is below 0.01 µM; at BRG-1 (read-out: BRG1 IP50) it was above 0.01 µM.

For the compound `Cc1cc(C)nc(-c2cccc(-c3csc(NC(=O)CNC(=O)c4ccn(S(C)(=O)=O)c4)n3)c2)n1` [Compound 405], the IC50 at BRM (read-out: BRM IP50) and at BRG-1 (read-out: BRG1 IP50) was below 0.01 µM each time.

As to `Cc1cc(C)nc(-c2cccc(-c3csc(NC(=O)CNC(=O)c4ccn(S(C)(=O)=O)c4)n3)c2)c1` [Compound 406], the IC50 on BRM (read-out: BRM IP50) and at BRG-1 (read-out: BRG1 IP50) was below 0.01 µM each time.

On to `Cc1cccc(-c2cccc(-c3csc(NC(=O)CNC(=O)c4ccn(S(C)(=O)=O)c4)n3)c2)n1` [Compound 407], for which the IC50 on BRM (read-out: BRM IP50) and on BRG-1 (read-out: BRG1 IP50) was below 0.01 µM in each case.

In the case of `CS(=O)(=O)n1ccc(C(=O)NCC(=O)Nc2nc(-c3cccc(-c4ccnc(N5CCC5)n4)c3)cs2)c1` [Compound 408, N-[2-[[4-[3-[2-(azetidin-1-yl)pyrimidin-4-yl]phenyl]thiazol-2-yl]amino]-2-oxo-ethyl]-1-methylsulfonyl-pyrrole-3-carboxamide], the IC50 at BRM (read-out: BRM IP50) and at BRG-1 (read-out: BRG1 IP50) was below 0.01 µM each time.

Take `CS(=O)(=O)n1ccc(C(=O)NCC(=O)Nc2nc(-c3cccc(-c4ccnc(C5CC5)n4)c3)cs2)c1` [Compound 409]: the IC50 on BRM (read-out: BRM IP50) and at BRG-1 (read-out: BRG1 IP50) was below 0.01 µM each time.

As for `CS(=O)(=O)n1ccc(C(=O)NCC(=O)Nc2nc(-c3cccc(-c4ccnc(Cl)n4)c3)cs2)c1` [Compound 410], the IC50 on BRM (read-out: BRM IP50) and on BRG-1 (read-out: BRG1 IP50) was below 0.01 µM throughout.

With `CC1(C)C=C(c2cccc(-c3csc(NC(=O)CNC(=O)c4ccn(S(C)(=O)=O)c4)n3)c2)CC(C)(C)O1` [Compound 411], the IC50 at BRM (read-out: BRM IP50) and on BRG-1 (read-out: BRG1 IP50) was above 0.01 µM in each case.

For the compound `Cc1cc(-c2cccc(-c3csc(NC(=O)CNC(=O)c4ccn(S(C)(=O)=O)c4)n3)c2)nc(C)n1` [Compound 412], the IC50 on BRM (read-out: BRM IP50) and on BRG-1 (read-out: BRG1 IP50) was below 0.01 µM throughout.

Regarding `Cc1cc(-c2cccc(-c3csc(NC(=O)CNC(=O)c4ccn(S(C)(=O)=O)c4)n3)c2)c(F)cn1` [Compound 413], the IC50 at BRM (read-out: BRM IP50) and at BRG-1 (read-out: BRG1 IP50) was below 0.01 µM each time.

With `CNC(=O)C(C)(C)n1ccc(-c2cccc(-c3csc(NC(=O)CNC(=O)c4ccn(S(C)(=O)=O)c4)n3)c2)n1` [Compound 414, N-[2-[[4-[3-[1-[1,1-dimethyl-2-(methylamino)-2-oxo-ethyl]pyrazol-3-yl]phenyl]thiazol-2-yl]amino]-2-oxo-ethyl]-1-methylsulfonyl-pyrrole-3-carboxamide], the IC50 at BRM (read-out: BRM IP50) and on BRG-1 (read-out: BRG1 IP50) was below 0.01 µM throughout.

On to `CC(C)(C)n1ccc(C(=O)NCC(=O)Nc2nc(-c3cccc(-c4cc5n(n4)CCOC5)c3)cs2)c1` [Compound 415], for which the IC50 on BRM (read-out: BRM IP50) and at BRG-1 (read-out: BRG1 IP50) was above 0.01 µM each time.

Turning to `Cc1nccc(-c2cccc(-c3csc(NC(=O)CNC(=O)c4ccn(S(C)(=O)=O)c4)n3)c2)n1` [Compound 416], the IC50 on BRM (read-out: BRM IP50) and on BRG-1 (read-out: BRG1 IP50) was below 0.01 µM each time.

With `Cc1cccc(-c2cccc(-c3csc(NC(=O)CNC(=O)c4ccn(C(C)(C)C)c4)n3)c2)n1` [Compound 417], the results for the IC50 on BRM (read-out: BRM IP50) and on BRG-1 (read-out: BRG1 IP50) were below 0.01 µM and above 0.01 µM, respectively.

`CN(C)C(=O)C(C)(C)n1ccc(-c2cccc(-c3csc(NC(=O)CNC(=O)c4ccn(S(C)(=O)=O)c4)n3)c2)n1` [Compound 418]: the IC50 at BRM (read-out: BRM IP50) and on BRG-1 (read-out: BRG1 IP50) was above 0.01 µM each time.

On to `CS(=O)(=O)n1ccc(C(=O)NCC(=O)Nc2nc(-c3cccc([C@@H]4CCCOC4)c3)cs2)c1` [Compound 419, 1-methylsulfonyl-N-[2-oxo-2-[[4-[3-[(3S)-tetrahydropyran-3-yl]phenyl]thiazol-2-yl]amino]ethyl]pyrrole-3-carboxamide], for which the results for the IC50 at BRM (read-out: BRM IP50) and on BRG-1 (read-out: BRG1 IP50) were above 0.01 µM and above 0.1 µM, respectively.

Take `CS(=O)(=O)n1ccc(C(=O)NCC(=O)Nc2nc(-c3cccc([C@H]4CCCOC4)c3)cs2)c1` [Compound 420, 1-methylsulfonyl-N-[2-oxo-2-[[4-[3-[(3R)-tetrahydropyran-3-yl]phenyl]thiazol-2-yl]amino]ethyl]pyrrole-3-carboxamide]: the IC50 at BRM (read-out: BRM IP50) and on BRG-1 (read-out: BRG1 IP50) was above 0.01 µM each time.

Turning to `CS(=O)(=O)n1ccc(C(=O)NCC(=O)Nc2nc(-c3cccc(-c4ccnc(CC(=O)O)c4)c3)cs2)c1` [Compound 421, Sodium 2-(4-(3-(2-(2-(1-(methylsulfonyl)-1H-pyrrole-3-carboxamido)acetamido)thiazol-4-yl)phenyl)pyridin-2-yl)acetate], the IC50 on BRM (read-out: BRM IP50) and at BRG-1 (read-out: BRG1 IP50) was above 0.01 µM each time.

On to `C[C@@H]1CN(c2cccc(-c3csc(NC(=O)CNC(=O)c4ccn(S(C)(=O)=O)c4)n3)c2)CC[C@H]1O` [Compound 423], for which the IC50 on BRM (read-out: BRM IP50) and on BRG-1 (read-out: BRG1 IP50) was below 0.01 µM each time.

Values taken from patent publication US20230079819A1, “COMPOUNDS AND USES THEREOF” (Foghorn Therapeutics Inc., priority 2019, published 2023).
